Here are results for one molecule from US20220228126A1, “USE OF PCBP1 TO GENERATE INDUCED PLURIPOTENT STEM CELLS WHILE INHIBITING ONCOGENESIS” (priority 2019, published 2022).

The test system of one test is BCL-2. Put plainly: qRT-PCR quantification of BCL-2 expression in cancer stem cells. To be noted: 10 μM niclosamide, DMSO base-line; U87-MG (CSC), DU-145 (CSC), MCF-7 (CSC). It counts as cell-based, human. How it is done: (§1) FIG. 28A-B: qRT-PCR quantification of c-Myc and BCL-2 expression in U87-MG(CSC) cells treated with DMSA or 10 μM niclosamide. For calculations: DMSO served as base-line in FIG. 28A. Mock-transfection served as base-line in FIG. 28B. Dotted line marks 1.5 fold change in y-axis, considered the benchmark for statistical significance.
(§2) FIG. 29A-B: qRT-PCR quantification of c-Myc and BCL-2 expression in DU-145 (CSC) cells treated with DMSA or 10 μM niclosamide. For calculations: DMSO served as base-line in FIG. 29A. Mock-transfection served as base-line in FIG. 29B. Dotted line marks 1.5 fold change in y-axis, considered the benchmark for statistical significance.
(§3) FIG. 30A-B. qRT-PCR quantification of c-Myc and BCL-2 expression in DU-145 (CSC) cells treated with DMSA or 10 μM niclosamide. For calculations: DMSO served as base-line in FIG. 30A. Mock-transfection served as base-line in FIG. 30B. Dotted line marks 1.5 fold change in y-axis, considered the benchmark for statistical significance.
(§4) U87-MG (CSC) were used to validate the NF-kB pathway. Cells were lysed using RIPA lysis buffer and 35 mcg cell lysate protein (determined by BCA assay) was loaded per well. […] The expression of c-Myc in the cells as measured by Western Blot was normalized. […] RNA levels were measured by qPRC using gene-specific Taqman probes for c-Myc and BCL-2. […]
For orientation: In qPCR the cycle at which signal appears reflects the starting amount.

A further test deals with c-Myc. The test can be described thus: qRT-PCR quantification of c-Myc expression in cancer stem cells. The format is cell-based, human. To be noted: 10 μM niclosamide, DMSO base-line; U87-MG (CSC), DU-145 (CSC), MCF-7 (CSC). The method, then: as §1, §2, §3, §4
For test [1], the system named is reactive oxygen species (ROS). The conditions noted are these: mechanism shown in FIG. 25; cited from earlier work.

For the molecule `O=C(Nc1ccc([N+](=O)[O-])cc1Cl)c1cc(Cl)ccc1O` [niclosamide], the BCL-2 expression result in the test on BCL-2 is recorded as “significantly down-regulated”. For the same molecule, the c-Myc expression result with c-Myc is “significantly down-regulated”. The “intracellular ROS content” value in test [1] is given as “elevates”.
